Results reported in patent publication US9409952B2, “Peptide-compound cyclization method” (Chugai Seiyaku Kabushiki Kaisha, priority 2011, dated 2016).
Where two headings read alike, the source gives them in different places. Starred links: 1 amine or outer side, 2 acyl side, 3 side chain; linkers in the order of their positions; H or OH if unused. Positions of bridges follow the written chain, without caps; N, C: chain ends. Non-standard residues stand in square brackets, D forms with d. Residues, ends and D or L forms follow the SMILES beside them. *: point of attachment. NMeF = CN[C@@H](Cc1ccccc1)C(=O)O; NMeGABA = CN(CCCC(=O)[*:2])[*:1]; NMeI = CC[C@H](C)[C@H](NC)C(=O)O; NMeL = CN[C@@H](CC(C)C)C(=O)O; NMeV = CN[C@H](C(=O)O)C(C)C; NMeA = CN[C@@H](C)C(=O)O; Piperidide = C1CCN(*)CC1; dNMeA = CN[C@H](C)C(=O)O; Sar = CNCC(=O)O; tBu = CC(C)(C)*

Assays:
[1] = PAMPA (parallel artificial membrane permeability assay); type: in vitro ADME; conditions: PAMPA
Summary of the method: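 Artificial membrane was 10% (w/v) egg lecithin plus 0.5% (w/v) cholesterol in dodecane on a PVDF filter. A 10 mM DMSO stock was added at 0.5% (v/v) to donor buffer (50 mM MOPSO, pH 6.5, 5.0% glycocholic acid). After 18 h at 37 °C, LC/MS or LC/UV gave donor and acceptor levels for Pe.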

[2] = Metabolic stability in human hepatic microsome; type: in vitro ADME; conditions: microsomes
[3] = membrane permeation rate (Pe), 50 mM MOPSO buffer pH 6.5 with 5.0% glycocholic acid, 37° C., 18 hours, read-out: iPAMPA Pe
[4] = pH 7.4, human hepatic microsome, NADPH(+), read-out: CL NADPH(+)

Row | SMILES | Papp at 18 hours, 50 µM ([1]; pH 6.5) [×10⁻⁶ cm/s] | microsomal CLint at 1 uM ([2]; human, pH 7.4, CL NADPH(+)) [µL/min/mg] | Papp at 18 hours, 50 µM [1, 3] [×10⁻⁶ cm/s] | microsomal CLint at 1 uM [2, 4] [µL/min/mg]
1 | CC[C@H](C)[C@H](NC(=O)[C@H](CC(C)C)NC(=O)[C@H](Cc1ccccc1)NC(=O)[C@@H]1CC(=O)N[C@@H](C)C(=O)N[C@@H]([C@@H](C)CC)C(=O)N(C)[C@@H](C)C(=O)N(C)[C@@H](Cc2ccccc2)C(=O)N[C@@H]([C@@H](C)O)C(=O)N(C)[C@@H](Cc2ccccc2)C(=O)N[C@@H](CC(C)C)C(=O)N2CCC[C@H]2C(=O)N1)C(=O)N[C@@H](C)C(=O)N1CCCCC1 [DP-666] (AI[NMeA][NMeF]T[NMeF]LPDFLIA-Piperidide; lactam N-9) | 3 | 74 | – | –
2 | CC[C@H](C)[C@@H]1NC(=O)[C@H](C)NC(=O)C[C@@H](C(=O)N(C)[C@@H](CC(C)C)C(=O)N(C)[C@@H](C)C(=O)N(C)[C@@H](Cc2ccccc2)C(=O)N[C@@H](C)C(=O)N2CCCCC2)NC(=O)[C@@H]2CCCN2C(=O)[C@H](CC(C)C)NC(=O)[C@H](Cc2ccccc2)N(C)C(=O)[C@H]([C@@H](C)O)NC(=O)[C@H](Cc2ccccc2)N(C)C(=O)[C@H](C)N(C)C1=O [DP-667] (AI[NMeA][NMeF]T[NMeF]LPD[NMeL][NMeA][NMeF]A-Piperidide; lactam N-9) | – | – | 19 | 39
3 | CC[C@H](C)[C@H](NC(=O)[C@H](C)N(C)C(=O)[C@@H]1CC(=O)N[C@@H](C)C(=O)N[C@@H]([C@@H](C)CC)C(=O)N(C)[C@@H](C)C(=O)N(C)[C@@H](Cc2ccccc2)C(=O)N[C@@H]([C@@H](C)O)C(=O)N(C)[C@@H](Cc2ccccc2)C(=O)N[C@@H](CC(C)C)C(=O)N2CCC[C@H]2C(=O)N1)C(=O)N1CCCCC1 [DP-668] (AI[NMeA][NMeF]T[NMeF]LPD[NMeA]I-Piperidide; lactam N-9) | 26 | 142 | – | –
4 | CC[C@H](C)[C@H](NC(=O)[C@@H]1CC(=O)N[C@@H](C)C(=O)N[C@@H]([C@@H](C)CC)C(=O)N(C)[C@@H](C)C(=O)N(C)[C@@H](Cc2ccccc2)C(=O)N[C@@H]([C@@H](C)O)C(=O)N(C)[C@@H](Cc2ccccc2)C(=O)N[C@@H](CC(C)C)C(=O)N2CCC[C@H]2C(=O)N1)C(=O)N1CCCCC1 [DP-669] (AI[NMeA][NMeF]T[NMeF]LPDI-Piperidide; lactam N-9) | 29 | 54 | – | –
5 | CC[C@H](C)[C@H]1C(=O)N(C)[C@@H](CC(C)C)C(=O)N[C@@H](Cc2ccccc2)C(=O)N[C@@H]([C@@H](C)O)C(=O)N[C@@H](CC(C)C)C(=O)N(C)[C@@H](Cc2ccccc2)C(=O)N(C)[C@@H](C(C)C)C(=O)N[C@H](C(=O)N(C)CC(=O)N(C)[C@@H](C)C(=O)N(C)[C@@H](CC(C)C)C(=O)N[C@@H](C)C(=O)N2CCCCC2)CC(=O)N[C@H](C)C(=O)N[C@@H](C)C(=O)N1C [DP-670] ([dA]A[NMeI][NMeL]FTL[NMeF][NMeV]D[Sar][NMeA][NMeL]A-Piperidide; lactam N-10) | – | – | 12 | 22
6 | CC[C@H](C)[C@H]1C(=O)N(C)[C@@H](CC(C)C)C(=O)N[C@@H](Cc2ccccc2)C(=O)N[C@@H]([C@@H](C)O)C(=O)N[C@@H](CC(C)C)C(=O)N(C)[C@@H](Cc2ccccc2)C(=O)N(C)[C@@H](C(C)C)C(=O)N[C@H](C(=O)N2CCC[C@H]2C(=O)N[C@H](C(=O)N[C@@H](C)C(=O)N2CCCCC2)C(C)C)CC(=O)N[C@H](C)C(=O)N[C@@H](C)C(=O)N1C [DP-671] ([dA]A[NMeI][NMeL]FTL[NMeF][NMeV]DPVA-Piperidide; lactam N-10) | – | – | 16 | 39
7 | CC[C@H](C)[C@H]1C(=O)N(C)[C@@H](CC(C)C)C(=O)N[C@@H](Cc2ccccc2)C(=O)N[C@@H]([C@@H](C)O)C(=O)N[C@@H](CC(C)C)C(=O)N(C)[C@@H](Cc2ccccc2)C(=O)N(C)[C@@H](C(C)C)C(=O)N[C@H](C(=O)N(C)CC(=O)N[C@@H](C)C(=O)N2CCCCC2)CC(=O)N[C@H](C)C(=O)N[C@@H](C)C(=O)N1C [DP-672] ([dA]A[NMeI][NMeL]FTL[NMeF][NMeV]D[Sar]A-Piperidide; lactam N-10) | – | – | 13 | 72
8 | CC(C)C[C@@H]1NC(=O)[C@H](C)NC(=O)C[C@@H](C(=O)N2CCCCC2)NC(=O)[C@H](Cc2ccccc2)N(C)C(=O)[C@H](CC(C)C)N(C)C(=O)[C@H](C)NC(=O)[C@H](Cc2ccccc2)N(C)C(=O)[C@H](CC(C)C)N(C)C1=O [DP-673] (AL[NMeL][NMeF]A[NMeL][NMeF]D-Piperidide; lactam N-8) | – | – | 30 | 631
9 | CC(C)C[C@H]1C(=O)N(C)[C@@H](C)C(=O)N(C)[C@@H](Cc2ccccc2)C(=O)N[C@@H](COC(C)(C)C)C(=O)N[C@H](C(=O)N2CCCCC2)CC(=O)N(C)CCCC(=O)N[C@@H]([C@@H](C)O)C(=O)N1C [DP-677] ([NMeGABA]T[NMeL][NMeA][NMeF]S(tBu)D-Piperidide; lactam N-7) | – | – | 7.2 | 45
10 | CC(C)C[C@H]1C(=O)N[C@H](C(=O)N2CCCCC2)CC(=O)N(C)[C@@H](C)C(=O)N(C)[C@@H](Cc2ccccc2)C(=O)N(C)[C@@H](CC(C)C)C(=O)N[C@@H]([C@@H](C)O)C(=O)N(C)[C@@H](C)C(=O)N1C [DP-678] ([NMeA][NMeF][NMeL]T[NMeA][NMeL]D-Piperidide; lactam N-7) | – | – | 26 | 284
11 | CC(C)C[C@H]1C(=O)N(C)[C@@H](CC(C)C)C(=O)N[C@H](C(=O)N2CCCCC2)CC(=O)N(C)[C@@H](C)C(=O)N(C)[C@@H](Cc2ccccc2)C(=O)N(C)[C@@H](CC(C)C)C(=O)N[C@@H]([C@@H](C)O)C(=O)N1C [DP-679] ([NMeA][NMeF][NMeL]T[NMeL][NMeL]D-Piperidide; lactam N-7) | – | – | 25 | 342
12 | CC(C)C[C@H]1C(=O)N[C@H](C(=O)N2CCCCC2)CC(=O)N(C)CCCC(=O)N(C)[C@@H](Cc2ccccc2)C(=O)N[C@@H]([C@@H](C)O)C(=O)N(C)[C@@H](C)C(=O)N[C@@H](COC(C)(C)C)C(=O)N1C [DP-680] ([NMeGABA][NMeF]T[NMeA]S(tBu)[NMeL]D-Piperidide; lactam N-7) | – | – | 15 | 96
13 | CC(C)C[C@H]1C(=O)N[C@H](C(=O)N2CCCCC2)CC(=O)N(C)CCCC(=O)N(C)[C@@H](Cc2ccccc2)C(=O)N[C@@H]([C@@H](C)O)C(=O)N(C)[C@@H](CC(C)C)C(=O)N[C@@H](COC(C)(C)C)C(=O)N1C [DP-681] ([NMeGABA][NMeF]T[NMeL]S(tBu)[NMeL]D-Piperidide; lactam N-7) | – | – | 28 | 275
14 | CC(C)C[C@H]1C(=O)N[C@H](C(=O)N2CCCCC2)CC(=O)N(C)[C@H](C)C(=O)N(C)[C@@H](Cc2ccccc2)C(=O)N(C)[C@@H](CC(C)C)C(=O)N[C@@H]([C@@H](C)O)C(=O)N(C)[C@@H](C)C(=O)N[C@@H](COC(C)(C)C)C(=O)N1C [DP-682] ([dNMeA][NMeF][NMeL]T[NMeA]S(tBu)[NMeL]D-Piperidide; lactam N-8) | – | – | 13 | 20
15 | CC(C)C[C@H]1C(=O)N[C@H](C(=O)N2CCCCC2)CC(=O)N(C)[C@H](C)C(=O)N(C)[C@@H](Cc2ccccc2)C(=O)N(C)[C@@H](CC(C)C)C(=O)N[C@@H]([C@@H](C)O)C(=O)N(C)[C@@H](CC(C)C)C(=O)N[C@@H](COC(C)(C)C)C(=O)N1C [DP-683] ([dNMeA][NMeF][NMeL]T[NMeL]S(tBu)[NMeL]D-Piperidide; lactam N-8) | – | – | 32 | 53
16 | CC(C)C[C@H]1C(=O)N[C@H](C(=O)N2CCCCC2)CC(=O)N[C@H](C)C(=O)N(C)[C@@H](Cc2ccccc2)C(=O)N(C)[C@@H](CC(C)C)C(=O)N[C@@H]([C@@H](C)O)C(=O)N(C)[C@@H](CC(C)C)C(=O)N[C@@H](COC(C)(C)C)C(=O)N1C [DP-684] ([dA][NMeF][NMeL]T[NMeL]S(tBu)[NMeL]D-Piperidide; lactam N-8) | – | – | 23 | 126
17 | CC(C)C[C@H]1C(=O)N(C)[C@@H](CC(C)C)C(=O)N[C@H](C(=O)N2CCCCC2)CC(=O)N(C)CCCC(=O)N(C)[C@@H](Cc2ccccc2)C(=O)N[C@@H]([C@@H](C)O)C(=O)N(C)[C@@H](C)C(=O)N[C@@H](COC(C)(C)C)C(=O)N1C [DP-685] ([NMeGABA][NMeF]T[NMeA]S(tBu)[NMeL][NMeL]D-Piperidide; lactam N-8) | – | – | 28 | 90
18 | CC(C)C[C@H]1C(=O)N(C)[C@@H](CC(C)C)C(=O)N[C@H](C(=O)N2CCCCC2)CC(=O)N(C)CCCC(=O)N(C)[C@@H](Cc2ccccc2)C(=O)N[C@@H]([C@@H](C)O)C(=O)N(C)[C@@H](CC(C)C)C(=O)N[C@@H](COC(C)(C)C)C(=O)N1C [DP-686] ([NMeGABA][NMeF]T[NMeL]S(tBu)[NMeL][NMeL]D-Piperidide; lactam N-8) | – | – | 36 | 227
19 | CC(C)C[C@@H]1NC(=O)[C@H](Cc2ccccc2)N(C)C(=O)[C@H]([C@@H](C)O)NC(=O)[C@H](Cc2ccccc2)N(C)C(=O)[C@H](C)N(C)C(=O)[C@H](C)N(C)C(=O)C[C@@H](C(=O)N2CCCCC2)NC(=O)[C@@H]2CCCN2C1=O [DP-687] ([NMeA][NMeA][NMeF]T[NMeF]LPD-Piperidide; lactam N-8) | 10 | 10 | – | –
20 | CC(C)C[C@@H]1NC(=O)[C@H](Cc2ccccc2)N(C)C(=O)[C@H]([C@@H](C)O)NC(=O)[C@H](Cc2ccccc2)N(C)C(=O)[C@H](C)N(C)C(=O)[C@H](CC(C)C)N(C)C(=O)C[C@@H](C(=O)N2CCCCC2)NC(=O)[C@@H]2CCCN2C1=O [DP-688] ([NMeL][NMeA][NMeF]T[NMeF]LPD-Piperidide; lactam N-8) | 17 | 23 | – | –
